From patent publication US20260365670A1, “EGFR INHIBITORS AND USES THEREOF” (DIZAL (JIANGSU) PHARMACEUTICAL CO., LTD., priority 2022, published 2026)
Where two headings read alike, the source gives them in different places.

What was measured:
EGFR Exon19Del/T790M = molecular target: T1, EGFR Exon19Del/T790M (Homo sapiens, UniProt P00533, DEL746-750/T790M); experiment: Inhibition of EGFR Exon19Del/T790M biochemical enzymatic activity (HTRF); conditions: 1 mM ATP
T1 construct: purchased Carna Bio
Protocol: (§1) Biological Example 1: Inhibition of EGFR WT and Mutant Biochemical Enzymatic Activity
(§2) The inhibition potency of compounds against these enzymes was assessed using Homogenous Time Resolved Fluorescence approach (HTRF, CisBio. Cat No. 62TKOPEJ).
(§3) Inhibitory effects of the compounds were determined by measuring the enzymatic activity of EGFR enzyme phosphorylates 1 μM TK Substrate-biotin in the presence of 1 mM adenosine-5′-triphosphate (ATP) and varying concentrations of the test compound. The enzyme reaction buffer contains 5 mM MgCl2, 1 mM MnC12, 0.01% CHAPS, 1 mM dithiothreitol (DTT), 0.5% dimethylsulfoxide (DMSO), and 1× supplemented enzymatic buffer. The WT and mutant EGFR enzymes (SignalChem) were added to plates containing inhibitors, followed by activation of the kinase reaction by addition of ATP and peptide substrates. After incubation for 1 h at room temperature, the reaction was stopped by the addition of the detection reagent mix containing EDTA. The fluorescence was measured at 615 nm and 665 nm, respectively with excitation wavelength at 320 nm. The calculated signal ratio of 665 nm/615 nm is proportional to the kinase activity. The concentration of compound producing 50% inhibition of the respective kinase (IC50) was calculated using four-parameter logistic fit with XL-FIT.

EGFR L858R/T790M = molecular target: T2, EGFR L858R/T790M (Homo sapiens, UniProt P00533, L858R/T790M); experiment: Inhibition of EGFR L858R/T790M biochemical enzymatic activity (HTRF); conditions: 1 mM ATP
T2 construct: purchased Carna Bio
Protocol: as §1, §2, §3

EGFR Exon19Del = molecular target: T3, EGFR Exon19Del (Homo sapiens, UniProt P00533, DEL746-750); experiment: Inhibition of EGFR Exon19Del biochemical enzymatic activity (HTRF); conditions: read-out: IC50 @Del19
T3 construct: purchased Carna Bio
Protocol: as §1, §2, §3

EGFR[T790M/C797S/L858R] = molecular target: T4, EGFR[T790M/C797S/L858R] (Homo sapiens, UniProt P00533, C797S/L858R/T790M); experiment: Inhibition of EGFR[T790M/C797S/L858R] biochemical enzymatic activity (HTRF); conditions: 1 mM ATP
T4 construct: purchased Carna Bio
Protocol: as §1, §2, §3

EGFR (d746-750 C797S) = molecular target: T5, EGFR (d746-750 C797S) (Homo sapiens, UniProt P00533, C797S/DEL746-750); experiment: Inhibition of EGFR (d746-750 C797S) biochemical enzymatic activity (HTRF); conditions: 1 mM ATP
T5 construct: purchased signalchem
Protocol: as §1, §2, §3

EGFR wild type = molecular target: T6, EGFR wild type (Homo sapiens, UniProt P00533); experiment: Inhibition of EGFR wild type biochemical enzymatic activity (HTRF); conditions: 1 mM ATP
T6 construct: purchased Carna Bio
Protocol: as §1, §2, §3

[1] = system: Ba/F3 cells expressing EGFR mutations; experiment: Cell proliferation assay, Ba/F3 cells expressing EGFR mutations (CellTiter-Glo, 72 hours); format: cell-based
Protocol: (§4) Biological Example 2: Cell Proliferation Assays
(§5) Ba/F3 cells expressing EGFR mutations were seeded in 384-well plates at 5000 cells/well in RPMI1640 medium containing […]. PC-9 at 500 cells/well was seeded into 384-well plates in RPMI1640 medium with 10% FBS. After overnight incubation, the assay plates were dosed with compounds at a series of concentrations. Alongside dosing the assay plates, the day 0 plate was processed using CellTiter-Glo® Luminescent Cell Viability Assay (Promega) to measure the number of viable cells (G0). The assay plates were further incubated for 72 hours and the number of viable cells (G3) was measured. The percentage of proliferation was calculated as: […]=100×(G3 value of sample well−G0 value)/(G3 value of DMSO control−G0 value). The concentration of compound producing 50% proliferation inhibition (GI50) was further calculated in best-fit curves using XLFit software. N/A=not available.

PC-9 = experiment: Cell proliferation assay, PC-9 cells (CellTiter-Glo, 72 hours); format: cell-based; conditions: PC9 cells
Protocol: as §4, §5

EGFR (C797S L858R) = molecular target: T7, EGFR (C797S L858R) (Homo sapiens, UniProt P00533, C797S/L858R); experiment: Inhibition of EGFR (C797S L858R) biochemical enzymatic activity (HTRF); conditions: 1 mM ATP
T7 construct: purchased signalchem
Protocol: as §1, §2, §3

EGFR L858R = molecular target: T8, EGFR L858R (Homo sapiens, UniProt P00533, L858R); experiment: Inhibition of EGFR L858R biochemical enzymatic activity (HTRF); conditions: 1 mM ATP
T8 construct: purchased Carna Bio
Protocol: as §1, §2, §3

[2] = molecular target: T9, EGFR[T790M/C797S/d746-750] (Homo sapiens, UniProt P00533, C797S/DEL746-750/T790M); experiment: Inhibition of EGFR[T790M/C797S/d746-750] biochemical enzymatic activity (HTRF)
T9 construct: purchased Carna Bio
Protocol: as §1, §2, §3

[3] = EGFR Del19-T790M, 1 h, room temperature, read-out: IC50 (nM) @Del19-T790M
[4] = EGFR L858R-T790M, 1 h, room temperature, read-out: IC50 (nM) @L858R-T790M
[5] = EGFR Del19, 1 mM ATP, 1 h, room temperature
[6] = EGFR T790M-C797S-L858R, 1 h, room temperature, read-out: IC50 (nM) @T790M- C797S - L858R
[7] = EGFR Del19-C797S, 1 h, room temperature, read-out: IC50 (nM) @Del19-C797S
[8] = EGFR WT, 1 h, room temperature, read-out: IC50 (nM) @WT
[9] = EGFR L858-C797S, 1 h, room temperature, read-out: IC50 (nM) @L858-C797S
[10] = 1 h, room temperature, read-out: IC50 (nM) @L858R
[11] = EGFR T790M-C797S-Del19, 1 mM ATP, 1 h, room temperature, read-out: IC50 (nM) @T790M - C797S - Del19
[12] = EGFR Exon19Del/T790M, 1 h at room temperature, read-out: IC50 @Del19-T790M
[13] = EGFR L858R/T790M, 1 h at room temperature, read-out: IC50 @L858R-T790M
[14] = EGFR Exon19Del, 1 mM ATP, 1 h at room temperature
[15] = EGFR[T790M/C797S/L858R], 1 h at room temperature, read-out: IC50 @T790M- C797S - L858R
[16] = EGFR (d746-750 C797S), 1 h at room temperature, read-out: IC50 @Del19-C797S
[17] = BaF3 cells, EGFR DEL19 - C797S, read-out: GI50 DEL19 - C797S/BaF3
[18] = BaF3 cells, EGFR DEL19 - T790-C797S, read-out: GI50 DEL19 - T790-C797S/BaF3
[19] = BaF3 cells, EGFR L858R - T790-C797S, read-out: GI50 L858R - T790-C797S/BaF3
[20] = BaF3 cells, EGFR L858R - T790M, read-out: GI50 L858R - T790M/BaF3
[21] = BaF3 cells, EGFR L858R, read-out: GI50 L858R/BaF3
[22] = EGFR DEL19 - T790M, read-out: GI50 DEL19 - T790M
[23] = EGFR (C797S L858R), 1 h at room temperature, read-out: IC50 @L858-C797S
[24] = 1 h at room temperature, read-out: IC50 @L858R
[25] = EGFR[T790M/C797S/d746-750], 1 mM ATP, 1 h at room temperature, read-out: IC50 @T790M - C797S - Del19
[26] = EGFR wild type, 1 h at room temperature, read-out: IC50 @WT

T7 sequence (P00533 25-1210 C797S/L858R): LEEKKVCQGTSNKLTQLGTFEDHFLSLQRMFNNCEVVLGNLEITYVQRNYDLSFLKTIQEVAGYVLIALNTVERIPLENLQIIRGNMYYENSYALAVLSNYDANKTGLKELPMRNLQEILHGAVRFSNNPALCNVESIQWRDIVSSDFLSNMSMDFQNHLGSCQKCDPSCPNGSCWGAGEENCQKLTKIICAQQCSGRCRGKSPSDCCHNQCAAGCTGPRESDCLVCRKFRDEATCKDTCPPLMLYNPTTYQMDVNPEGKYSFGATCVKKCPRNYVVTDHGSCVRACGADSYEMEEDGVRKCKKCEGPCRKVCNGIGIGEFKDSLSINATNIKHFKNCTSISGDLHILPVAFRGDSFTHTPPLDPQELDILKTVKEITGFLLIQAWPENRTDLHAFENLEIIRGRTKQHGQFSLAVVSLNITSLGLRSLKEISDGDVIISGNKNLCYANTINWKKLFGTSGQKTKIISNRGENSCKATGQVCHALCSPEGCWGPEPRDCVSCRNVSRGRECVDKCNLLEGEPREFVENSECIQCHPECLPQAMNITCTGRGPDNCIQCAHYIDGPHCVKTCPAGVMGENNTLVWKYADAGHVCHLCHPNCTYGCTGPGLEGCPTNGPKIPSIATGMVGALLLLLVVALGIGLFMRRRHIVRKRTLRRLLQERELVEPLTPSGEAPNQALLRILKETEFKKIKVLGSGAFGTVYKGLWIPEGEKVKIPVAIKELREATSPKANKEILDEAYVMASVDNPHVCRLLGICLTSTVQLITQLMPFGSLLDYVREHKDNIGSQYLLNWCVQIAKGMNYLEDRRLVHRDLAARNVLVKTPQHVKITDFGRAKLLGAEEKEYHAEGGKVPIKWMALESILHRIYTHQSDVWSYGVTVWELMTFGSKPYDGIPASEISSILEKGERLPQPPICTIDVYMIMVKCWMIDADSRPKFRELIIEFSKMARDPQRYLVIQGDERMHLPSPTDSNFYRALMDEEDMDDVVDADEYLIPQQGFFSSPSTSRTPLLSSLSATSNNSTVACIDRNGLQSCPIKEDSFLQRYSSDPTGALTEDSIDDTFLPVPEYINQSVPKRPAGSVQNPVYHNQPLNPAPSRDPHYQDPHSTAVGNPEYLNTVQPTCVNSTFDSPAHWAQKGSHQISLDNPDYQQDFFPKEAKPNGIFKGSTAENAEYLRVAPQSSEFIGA
T2 sequence (P00533 25-1210 T790M/L858R): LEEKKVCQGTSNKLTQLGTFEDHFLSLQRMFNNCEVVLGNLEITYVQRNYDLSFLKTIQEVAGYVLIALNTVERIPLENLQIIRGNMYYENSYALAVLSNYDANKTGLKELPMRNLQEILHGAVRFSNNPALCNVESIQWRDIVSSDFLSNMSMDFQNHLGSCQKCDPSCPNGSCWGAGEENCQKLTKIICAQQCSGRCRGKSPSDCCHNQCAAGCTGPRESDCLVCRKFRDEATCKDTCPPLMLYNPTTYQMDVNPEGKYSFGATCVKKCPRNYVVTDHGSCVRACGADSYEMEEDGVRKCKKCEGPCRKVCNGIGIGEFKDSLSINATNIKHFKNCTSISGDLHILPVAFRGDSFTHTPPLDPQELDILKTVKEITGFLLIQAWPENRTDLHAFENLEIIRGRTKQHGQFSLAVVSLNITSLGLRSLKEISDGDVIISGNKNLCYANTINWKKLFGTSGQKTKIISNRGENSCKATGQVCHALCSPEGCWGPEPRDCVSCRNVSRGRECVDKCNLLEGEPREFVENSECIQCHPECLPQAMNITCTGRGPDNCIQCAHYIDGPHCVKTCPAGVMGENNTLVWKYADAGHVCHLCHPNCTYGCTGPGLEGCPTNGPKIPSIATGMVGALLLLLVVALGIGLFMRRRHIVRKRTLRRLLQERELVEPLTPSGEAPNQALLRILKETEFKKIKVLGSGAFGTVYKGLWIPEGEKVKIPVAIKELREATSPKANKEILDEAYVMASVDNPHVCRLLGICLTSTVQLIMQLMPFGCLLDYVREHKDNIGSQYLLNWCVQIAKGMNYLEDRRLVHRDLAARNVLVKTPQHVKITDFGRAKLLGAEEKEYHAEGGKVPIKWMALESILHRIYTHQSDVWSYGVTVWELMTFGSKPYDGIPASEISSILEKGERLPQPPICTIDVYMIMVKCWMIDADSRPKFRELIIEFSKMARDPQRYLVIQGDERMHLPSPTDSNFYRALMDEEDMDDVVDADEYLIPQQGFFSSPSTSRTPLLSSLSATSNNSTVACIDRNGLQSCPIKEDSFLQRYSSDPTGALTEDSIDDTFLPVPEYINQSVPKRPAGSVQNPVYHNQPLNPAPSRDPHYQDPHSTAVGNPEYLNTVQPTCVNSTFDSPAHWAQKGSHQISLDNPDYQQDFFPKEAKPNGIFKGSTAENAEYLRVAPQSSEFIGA
T1 sequence (P00533 with tags, fused parts or gaps DEL746-750/T790M limits assumed): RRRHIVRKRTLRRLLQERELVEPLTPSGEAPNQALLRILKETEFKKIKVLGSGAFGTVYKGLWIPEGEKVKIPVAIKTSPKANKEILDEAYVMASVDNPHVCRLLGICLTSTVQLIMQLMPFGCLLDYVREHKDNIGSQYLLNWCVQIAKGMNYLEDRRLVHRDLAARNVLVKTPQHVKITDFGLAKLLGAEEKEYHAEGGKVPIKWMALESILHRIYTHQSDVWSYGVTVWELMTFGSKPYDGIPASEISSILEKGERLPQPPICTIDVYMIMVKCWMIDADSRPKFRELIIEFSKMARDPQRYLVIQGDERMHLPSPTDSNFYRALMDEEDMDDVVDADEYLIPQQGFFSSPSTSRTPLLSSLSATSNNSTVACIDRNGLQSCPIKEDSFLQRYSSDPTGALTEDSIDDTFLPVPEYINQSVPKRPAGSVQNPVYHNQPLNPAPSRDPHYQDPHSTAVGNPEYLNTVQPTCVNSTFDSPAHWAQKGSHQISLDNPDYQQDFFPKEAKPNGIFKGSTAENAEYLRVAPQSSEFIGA
T8 sequence (P00533 25-1210 L858R): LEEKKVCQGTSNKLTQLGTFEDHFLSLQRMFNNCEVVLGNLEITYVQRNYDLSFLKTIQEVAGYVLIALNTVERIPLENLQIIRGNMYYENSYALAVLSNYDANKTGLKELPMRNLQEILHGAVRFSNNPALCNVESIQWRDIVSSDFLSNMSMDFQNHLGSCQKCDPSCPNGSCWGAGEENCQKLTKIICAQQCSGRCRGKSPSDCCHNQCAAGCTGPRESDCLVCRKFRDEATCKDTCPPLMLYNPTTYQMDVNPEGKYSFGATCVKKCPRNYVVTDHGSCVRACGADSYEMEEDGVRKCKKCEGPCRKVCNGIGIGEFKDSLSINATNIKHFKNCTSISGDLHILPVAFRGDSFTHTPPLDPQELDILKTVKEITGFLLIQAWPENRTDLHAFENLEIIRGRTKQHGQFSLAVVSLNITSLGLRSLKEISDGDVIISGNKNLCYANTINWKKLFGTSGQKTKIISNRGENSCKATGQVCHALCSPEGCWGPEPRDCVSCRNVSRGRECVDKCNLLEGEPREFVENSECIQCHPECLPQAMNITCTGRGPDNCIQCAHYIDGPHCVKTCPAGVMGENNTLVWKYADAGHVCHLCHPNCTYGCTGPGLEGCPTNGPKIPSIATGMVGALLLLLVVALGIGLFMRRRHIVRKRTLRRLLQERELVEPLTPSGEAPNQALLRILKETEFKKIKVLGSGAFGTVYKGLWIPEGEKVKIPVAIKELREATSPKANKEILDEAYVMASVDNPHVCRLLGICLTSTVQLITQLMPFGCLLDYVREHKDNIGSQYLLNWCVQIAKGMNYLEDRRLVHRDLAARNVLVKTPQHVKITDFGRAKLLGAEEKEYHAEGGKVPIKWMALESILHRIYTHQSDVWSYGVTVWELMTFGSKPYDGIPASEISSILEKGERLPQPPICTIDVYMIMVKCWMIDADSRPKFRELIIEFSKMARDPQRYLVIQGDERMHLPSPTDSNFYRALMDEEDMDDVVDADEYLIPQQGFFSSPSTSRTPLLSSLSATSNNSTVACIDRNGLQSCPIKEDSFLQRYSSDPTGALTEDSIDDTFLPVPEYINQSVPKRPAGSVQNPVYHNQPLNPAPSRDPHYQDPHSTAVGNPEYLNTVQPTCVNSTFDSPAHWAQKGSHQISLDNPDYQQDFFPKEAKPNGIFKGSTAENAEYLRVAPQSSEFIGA
T3 sequence (P00533 with tags, fused parts or gaps DEL746-750 limits assumed): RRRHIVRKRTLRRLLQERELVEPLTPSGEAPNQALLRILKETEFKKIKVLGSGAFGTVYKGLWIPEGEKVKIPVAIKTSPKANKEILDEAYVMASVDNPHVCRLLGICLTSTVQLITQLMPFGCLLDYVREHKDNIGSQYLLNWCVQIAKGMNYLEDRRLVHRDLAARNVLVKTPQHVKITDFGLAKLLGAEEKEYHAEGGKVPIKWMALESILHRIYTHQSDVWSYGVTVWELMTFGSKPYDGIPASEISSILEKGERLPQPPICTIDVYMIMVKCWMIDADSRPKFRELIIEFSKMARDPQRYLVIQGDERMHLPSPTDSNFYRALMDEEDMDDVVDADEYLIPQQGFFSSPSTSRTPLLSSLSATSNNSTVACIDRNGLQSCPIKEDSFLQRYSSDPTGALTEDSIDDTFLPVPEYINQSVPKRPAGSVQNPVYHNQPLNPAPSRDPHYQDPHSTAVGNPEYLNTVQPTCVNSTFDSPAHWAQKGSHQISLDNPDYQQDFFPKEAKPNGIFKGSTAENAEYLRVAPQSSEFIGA

Compound	IC50 (EGFR Exon19Del/T790M; [3]) [nM]	IC50 (EGFR L858R/T790M; [4]) [nM]	IC50 (EGFR Exon19Del; [5]) [µM]	IC50 (EGFR[T790M/C797S/L858R]; [6]) [nM]	IC50 (EGFR (d746-750 C797S); [7]) [nM]	IC50 (EGFR wild type; [8]) [nM]	IC50 (EGFR (C797S L858R); [9]) [nM]	IC50 (EGFR L858R; [10]) [nM]	IC50 [2, 11] [nM]	IC50 (EGFR Exon19Del/T790M; [12]) [nM]	IC50 (EGFR L858R/T790M; [13]) [nM]	IC50 (EGFR Exon19Del; [14]) [µM]	IC50 (EGFR[T790M/C797S/L858R]; [15]) [nM]	IC50 (EGFR (d746-750 C797S); [16]) [nM]	GI50 [1, 17] [µM]	GI50 [1, 19] [µM]	GI50 [1, 20] [µM]	GI50 [1, 22] [µM]	IC50 (EGFR (C797S L858R); [23]) [nM]	IC50 [2, 25] [nM]	other results
CN1CCC2(CC1)CN(c1ccc3nc4n(c3c1)C13CCC(CN(CCOc5c(cnn5C)-c5cc(cn(C)c5=O)C(=O)N4)C1)C3)C2 (single isomer, unassigned) [Example A77A]	> 5000	> 5000	0.456	> 5000	464	> 5000	> 5000	1110	> 5000												GI50 ([1]; BaF3 cells, EGFR DEL19-C797S, CellTiter-Glo, read-out: DEL19-C797S/BaF3 GI50): 0.102 µM; GI50 ([1]; BaF3 cells, EGFR DEL19-T790-C797S, CellTiter-Glo, read-out: DEL19-T790-C797S/BaF3 GI50): 0.326 µM; GI50 ([1]; BaF3 cells, EGFR L858R, CellTiter-Glo, read-out: L858R/BaF3 GI50): 0.32 µM; GI50 ([1]; BaF3 cells, EGFR L858R-C797S, CellTiter-Glo, read-out: L858R-C797S/BaF3 GI50): 0.125 µM; GI50 ([1]; BaF3 cells, EGFR L858R-T790-C797S, CellTiter-Glo, read-out: L858R-T790-C797S/BaF3 GI50): 0.368 µM; GI50 ([1]; BaF3 cells, EGFR L858R-T790M, CellTiter-Glo, read-out: L858R-T790M/BaF3 GI50): 0.375 µM; GI50 ([1]; EGFR DEL19-T790M, CellTiter-Glo, read-out: DEL19-T790M GI50): 0.212 µM; GI50 (PC-9; CellTiter-Glo, read-out: PC9 GI50): 0.341 µM
CN(C)CCC1CN(c2ccc3nc4n(c3c2)C23CCC(CN(CCOc5c(cnn5C)-c5cc(cn(C)c5=O)C(=O)N4)C2)C3)C1 (single isomer, unassigned) [Example A95A]	> 5000	> 5000	0.864	> 5000	899	> 5000	> 5000	4640	> 5000												
Cc1cc2cc(n1)-c1cnn(C)c1OCCN1CC3CCC(C3)(C1)n1c(nc3ccc(N4CCC(N5CCOCC5)C4)cc31)NC2=O (single isomer, unassigned) [Example B44A]										> 5000	> 5000	> 5	> 5000	> 5000	0.312	0.052	0.326	0.368	> 5000	4640	GI50 [1, 18]: 0.321 µM; GI50 ([1]; BaF3 cells, EGFR L858R - C797S, read-out: GI50 L858R - C797S/BaF3): 0.624 µM; GI50 [1, 21]: 3 µM; GI50 (PC-9; read-out: GI50 PC9): 1.4 µM; IC50 (EGFR L858R; [24]): > 5000 nM
Cc1cc2cc(n1)-c1cnn(C)c1OCCN1CCOCC(C1)n1c(nc3ccccc31)NC2=O (stereo not drawn) [Example B7, 15,21-dimethyl-23,29-dioxa-2,9,11,16,20,21,26-heptaazahexacyclo[24.4.1.1^{13,17}.0^{2,10}.0^{3,8}.0^{18,22}]dotriaconta-3,5,7,9,13(32),14,16,18(22),19-nonaen-12-one]										109	1960	1.42	1090	627		0.3	0.723	0.42	> 5000	44	IC50 (EGFR wild type; [26]): > 500 nM; GI50 [1, 18]: 0.296 µM; GI50 ([1]; Mus musculus, BaF3, 72 h, BaF3 cells, EGFR DEL19 - C797S, read-out: GI50 DEL19 - C797S/BaF3): 0.346 µM; GI50 ([1]; Mus musculus, BaF3, 72 h, BaF3 cells, EGFR L858R - C797S, read-out: GI50 L858R - C797S/BaF3): 0.334 µM; GI50 ([1]; Mus musculus, BaF3, 72 h, BaF3 cells, EGFR L858R, read-out: GI50 L858R/BaF3): 1.9 µM; GI50 (PC-9; Homo sapiens, PC-9, 72 h, read-out: GI50 PC9): 0.667 µM
Cc1cc2cc(n1)-c1cnn(C)c1OCCN1CC3CCC(CC3)(C1)n1c(nc3ccc(N4CCC5(CCN(C)CC5)C4)cc31)NC2=O [Example B38]										21	37	0.038	14	26	0.024	0.019	0.038	0.01	300	8.2	IC50 (EGFR wild type; [26]): > 5000 nM; GI50 [1, 21]: 0.081 µM; IC50 (EGFR L858R; [24]): 560 nM
